Data as given in patent US20230355547A1, “STABILIZATION OF VITAMIN A IN A NUTRITIONAL SOLUTION” (BAXTER INTERNATIONAL INC., priority 2020, published 2023).

Assay: Impact of dissolved oxygen on the stability of vitamin A in a 10% soybean lipid emulsion (Example 4)
Type: physicochemical
Settings: more than 6 months at 40° C., independently of light exposure
Description: Accordingly, at an oxygen level of about 0.300 ppm vitamin A after 6 months is no longer considered stable, i.e. recovery drops below 80%.
Various methods can be used to determine the DO content of a given solution. Generally, electrochemical or optical sensors are used for determining the DO concentration according to the invention. A preferred method comprises using a fiber-optic oxygen meter such as MICROX TX3, which is a single-channel, temperature-compensated oxygen meter with fiber-optic trace oxygen microsensors based on a glass fiber (e.g. 140 μm). […] For data visualization during measurements, the oxygen meter is connected to a LCD & Data-Logger Unit.
The stability of vitamin A was tested in a 10% soybean lipid emulsion having a peroxide level of below 5 milliequivalents (mEq) O2/kg. The lipid emulsion contained vitamin A in a concentration of 1 dd/25 mL, as well as vitamin E in a concentration of 1 dd/25 mL and the pH was adjusted to 5.9 with HCl.
FIG. 2 depicts the dependency of vitamin A recovery on the presence of dissolved oxygen.

vitamin A
stability in the presence of oxygen of above 0.3 ppm: not stable
